Laboratory results: patent EP4603105A1, “PHARMACEUTICAL COMPOSITION CONTAINING CYCLIC COMPOUND HAVING SELECTIVE KRAS INHIBITORY EFFECT AGAINST HRAS AND NRAS” (CHUGAI SEIYAKU KABUSHIKI KAISHA, priority 2022, dated 2024)
*1 amine or outer side, *2 acyl side, *3 side chain or, on linkers, in order; H or OH if unused. Where a SMILES comes first, the peptide text is derived from it. Bridges are numbered along the chain shown (N, C = ends). [ ]: non-standard residue; d: D form. The star is where a group is joined. hPhe(3-Cl-4-CF3) = N[C@@H](CCc1ccc(C(F)(F)F)c(Cl)c1)C(=O)O; X51 = CCCN([C@@H](Cc1ccc(OC(F)(F)F)cc1)C(=O)[*:2])[*:1]; NPrPhe(4-CF3) = CCCN[C@@H](Cc1ccc(C(F)(F)F)cc1)C(=O)O; X44 = Cc1ccc(C[C@@H](C(=O)[*:2])N(CC2CCC2)[*:1])cc1; X50 = C=CCN([C@@H](Cc1ccc(C)cc1)C(=O)[*:2])[*:1]; NMeGly(cPent) = CN[C@H](C(=O)O)C1CCCC1; Pro(4S-Me) = C[C@@H]1CN[C@H](C(=O)O)C1; Gly(cPent) = N[C@H](C(=O)O)C1CCCC1; cisHyp = O=C(O)[C@@H]1C[C@H](O)CN1; NMeD = CN[C@@H](CC(=O)O)C(=O)O; NMeL = CN[C@@H](CC(C)C)C(=O)O; Morpholide = C1CN(*)CCO1; NMeA = CN[C@@H](C)C(=O)O; Ac5c = NC1(C(=O)O)CCCC1; Aze = O=C(O)[C@@H]1CCN1; Ethyl(2,2-F2) = FC(F)C*; Sar = CNCC(=O)O

Tested on: human lung cancer strain NCI-H441
Type: cell-based
Description: A test compound was dispensed into a U-bottom 384-well plate as 40 nL serially diluted dimethyl sulfoxide solutions using a liquid handler Echo (LABCYTE). […] This cell suspension was dispensed in an amount of 40 µL per well into a plate containing the test compound, and cultured at 37°C in a 5% carbon dioxide gas incubator. Four days later, 20 µL of CellTiter-Glo (registered trademark) (Promega) was added to each well and […] was measured. […]

SMILES	IC50
CC[C@H](C)[C@@H]1NC(=O)[C@H](CC(C)C)N(C)C(=O)CSC[C@H](C(=O)N(C)C)N(C)C(=O)[C@H](C2CCCC2)N(C)C(=O)C2(CCCC2)NC(=O)[C@@H]2CCCN2C(=O)[C@H](CCc2cc(F)c(C(F)(F)F)c(F)c2)NC(=O)CN(C)C(=O)[C@H](Cc2ccc(C(F)(F)F)cc2)N2CC/C=C\C[C@@H](C2=O)N(C)C(=O)CN(C)C1=O [PP3109]	3420 nM
CCCN1C(=O)CN(C)C(=O)CN(C)C(=O)[C@H]([C@@H](C)CC)NC(=O)[C@H](CC(C)C)N(C)C(=O)C[C@@H](C(=O)N2CCOCC2)N(C)C(=O)[C@H](C2CCCC2)N(C)C(=O)C2(CCCC2)NC(=O)[C@@H]2C[C@H](OCC(F)F)CN2C(=O)[C@H](CCc2ccc(C(F)(F)F)c(Cl)c2)NC(=O)CN(C)C(=O)[C@@H]1Cc1ccc(C(F)(F)F)cc1 [PP0245] ([NMeL]I[Sar][Sar][NPrPhe(4-CF3)][Sar][hPhe(3-Cl-4-CF3)][cisHyp](Ethyl(2,2-F2))[Ac5c][NMeGly(cPent)][NMeD]-Morpholide; lactam N-11)	22.9 nM
CC[C@H](C)[C@@H]1NC(=O)[C@H](CC(C)C)N(C)C(=O)C[C@@H](C(=O)N2CCOCC2)N(C)C(=O)[C@H](C2CCCC2)N(C)C(=O)C2(CCCC2)NC(=O)[C@@H]2CCCN2C(=O)[C@H](CCc2ccc(C(F)(F)F)c(Cl)c2)NC(=O)CN(C)C(=O)[C@H](Cc2ccc(C)cc2)N(CC2CCC2)C(=O)[C@@H]2CCN2C(=O)[C@H](C)N(C)C1=O [PP0083] ([NMeL]I[NMeA][Aze][X44][Sar][hPhe(3-Cl-4-CF3)]P[Ac5c][NMeGly(cPent)][NMeD]-Morpholide; lactam N-11)	11.3 nM
CC[C@H](C)[C@@H]1NC(=O)[C@H](CC(F)F)N(C)C(=O)C[C@@H](C(=O)N(C)C)N(C)C(=O)[C@H](C2CCCC2)N(C)C(=O)C2(CC(C)(C)C2)NC(=O)[C@@H]2C[C@@H](C)CN2C(=O)[C@H](CCc2ccc(C(F)(F)F)c(OC)c2)NC(=O)CN(C)C(=O)[C@H](Cc2ccc(C)cc2)N2CC/C=C\C[C@@H](C2=O)N(C)C(=O)CN(C)C1=O [PP1877]	18.4 nM
CCC[C@H]1C(=O)N[C@@H]([C@@H](C)CC)C(=O)N(C)CC(=O)N(C)[C@H]2C/C=C\CCN(C2=O)[C@@H](Cc2ccc(C)cc2)C(=O)N(C)CC(=O)N[C@@H](CCc2ccc(C(F)(F)F)c(Cl)c2)C(=O)N2C[C@H](C)C[C@H]2C(=O)NC2(CCC2)C(=O)N(C)[C@@H](C2CCCC2)C(=O)N(C)[C@H](C(=O)N(C)CC)CC(=O)N1C [PP1850]	49.1 nM
CC[C@H](C)[C@@H]1NC(=O)[C@H](CC2CC2)N(C)C(=O)C[C@@H](C(=O)N(C)CC)N(C)C(=O)[C@H](C2CCCC2)N(C)C(=O)C2(CCC2)NC(=O)[C@@H]2C[C@H](C)CN2C(=O)[C@H](CCc2ccc(C(F)(F)F)c(OC)c2)NC(=O)CN(C)C(=O)[C@H](Cc2ccc(C)cc2)N2CC/C=C\C[C@@H](C2=O)N(C)C(=O)CN(C)C1=O [PP1897]	22.6 nM
CCCN1C(=O)[C@@H]2CCN2C(=O)[C@H](C)N(C)C(=O)[C@H]([C@@H](C)CC)NC(=O)[C@H](CC(C)C)N(C)C(=O)C[C@@H](C(=O)N2CCOCC2)N(C)C(=O)[C@H](C2CCCC2)N(C)C(=O)C2(CCCC2)NC(=O)[C@@H]2C[C@H](C)CN2C(=O)[C@H](CCc2ccc(C(F)(F)F)c(Cl)c2)NC(=O)CN(C)C(=O)[C@@H]1Cc1ccc(C(F)(F)F)cc1 [PP0455] ([NMeL]I[NMeA][Aze][NPrPhe(4-CF3)][Sar][hPhe(3-Cl-4-CF3)][Pro(4S-Me)][Ac5c][NMeGly(cPent)][NMeD]-Morpholide; lactam N-11)	9.9 nM
C=CCN1C(=O)[C@@H]2CCN2C(=O)[C@H](C)N(C)C(=O)[C@H]([C@@H](C)CC)NC(=O)[C@H](CC(C)C)N(C)C(=O)C[C@@H](C(=O)N2CCOCC2)N(C)C(=O)[C@H](C2CCCC2)N(C)C(=O)C2(CCCC2)NC(=O)[C@@H]2CCCN2C(=O)[C@H](CCc2ccc(C(F)(F)F)c(Cl)c2)NC(=O)CN(C)C(=O)[C@@H]1Cc1ccc(C)cc1 [PP0088] ([NMeL]I[NMeA][Aze][X50][Sar][hPhe(3-Cl-4-CF3)]P[Ac5c][NMeGly(cPent)][NMeD]-Morpholide; lactam N-11)	4.1 nM
CCCN1C(=O)[C@@H]2CCN2C(=O)CN(C)C(=O)[C@H]([C@@H](C)CC)NC(=O)[C@H](CC(C)C)N(C)C(=O)C[C@@H](C(=O)N(C)C)NC(=O)[C@H](C2CCCC2)N(C)C(=O)C2(CCCC2)NC(=O)[C@@H]2CCCN2C(=O)[C@H](CCc2ccc(C(F)(F)F)c(Cl)c2)NC(=O)CN(C)C(=O)[C@@H]1Cc1ccc(C(F)(F)F)cc1 [PP0385] ([NMeL]I[Sar][Aze][NPrPhe(4-CF3)][Sar][hPhe(3-Cl-4-CF3)]P[Ac5c][NMeGly(cPent)]D-NMe2; lactam N-11)	15.2 nM
CCCN(C)C(=O)[C@@H]1CC(=O)N(C)[C@@H](COCC)C(=O)N[C@@H]([C@@H](C)CC)C(=O)N(C)CC(=O)N(C)[C@H]2C/C=C\CCN(C2=O)[C@@H](Cc2ccc(C(F)(F)F)cc2)C(=O)N(C)CC(=O)N[C@@H](CCc2cc(F)c(C(F)(F)F)c(F)c2)C(=O)N2C[C@@H](C)C[C@H]2C(=O)NC2(CCC2)C(=O)N(C)[C@@H](C2CCCC2)C(=O)N1C [PP2002]	15.7 nM
CCCN1C(=O)[C@@H]2CCN2C(=O)[C@H](C)N(C)C(=O)[C@H]([C@@H](C)CC)NC(=O)[C@H](CC(C)C)N(C)C(=O)C[C@@H](C(=O)N2CCOCC2)N(C)C(=O)[C@H](C2CCCC2)N(C)C(=O)C2(CCCC2)NC(=O)[C@@H]2CCCN2C(=O)[C@H](CCc2ccc(C(F)(F)F)c(Cl)c2)NC(=O)CN(C)C(=O)[C@@H]1Cc1ccc(OC(F)(F)F)cc1 [PP0136] ([NMeL]I[NMeA][Aze][X51][Sar][hPhe(3-Cl-4-CF3)]P[Ac5c][NMeGly(cPent)][NMeD]-Morpholide; lactam N-11)	19.6 nM
CCCN1C(=O)CN(C)C(=O)CN(C)C(=O)[C@H]([C@@H](C)CC)NC(=O)[C@H](CC(C)C)N(C)C(=O)C[C@@H](C(=O)N2CCOCC2)N(C)C(=O)[C@H](C2CCCC2)N(C)C(=O)C2(CCCC2)NC(=O)[C@H](C)NC(=O)[C@H](CCc2ccc(C(F)(F)F)c(Cl)c2)NC(=O)CN(C)C(=O)[C@@H]1Cc1ccc(C(F)(F)F)cc1 [PP1914] ([NMeL]I[Sar][Sar][NPrPhe(4-CF3)][Sar][hPhe(3-Cl-4-CF3)]A[Ac5c][NMeGly(cPent)][NMeD]-Morpholide; lactam N-11)	39.7 nM
CCC[C@H]1C(=O)N[C@@H]([C@@H](C)CC)C(=O)N(C)CC(=O)N(C)[C@H]2C/C=C\CCN(C2=O)[C@@H](Cc2ccc(C)cc2)C(=O)N(C)CC(=O)N[C@@H](CCc2ccc(C(F)(F)F)c(Cl)c2)C(=O)N2C[C@@H](C)C[C@H]2C(=O)NC2(CCC2)C(=O)N(C)[C@@H](C2CCCC2)C(=O)N(C)[C@H](C(=O)N(C)CC)CC(=O)N1C [PP1848]	22.5 nM
CCCN1C(=O)CN(C)C(=O)CN(C)C(=O)[C@H](C2CCCC2)NC(=O)[C@H](CC(C)C)N(C)C(=O)C[C@@H](C(=O)N2CCOCC2)N(C)C(=O)[C@H](C2CCCC2)N(C)C(=O)C2(CCCC2)NC(=O)[C@@H]2CCCN2C(=O)[C@H](CCc2ccc(C(F)(F)F)c(Cl)c2)NC(=O)CN(C)C(=O)[C@@H]1Cc1ccc(C(F)(F)F)cc1 [PP0251] ([NMeL][Gly(cPent)][Sar][Sar][NPrPhe(4-CF3)][Sar][hPhe(3-Cl-4-CF3)]P[Ac5c][NMeGly(cPent)][NMeD]-Morpholide; lactam N-11)	8.4 nM
C#CCN1CC(=O)N(C)[C@H]2C/C=C\CCN(C2=O)[C@@H](Cc2ccc(C)cc2)C(=O)N(C)CC(=O)N[C@@H](CCc2ccc(C(F)(F)F)c(OC)c2)C(=O)N2C[C@H](OCC)C[C@H]2C(=O)NC2(CC(C)(C)C2)C(=O)N(C)[C@@H](C2CCCC2)C(=O)N(C)[C@H](C(=O)N(C)C)CC(=O)N(C)[C@@H](CC(C)C)C(=O)N[C@@H]([C@@H](C)CC)C1=O [PP2060]	7.4 nM
CC[C@H](C)[C@@H]1NC(=O)[C@H](CC2CC2)N(C)C(=O)C[C@@H](C(=O)N(C)CC)N(C)C(=O)[C@H](C2CCCC2)N(C)C(=O)C2(CCC2)NC(=O)[C@@H]2C[C@@H](C)CN2C(=O)[C@H](CCc2ccc(C(F)(F)F)c(OC)c2)NC(=O)CN(C)C(=O)[C@H](Cc2ccc(C)cc2)N2CC/C=C\C[C@@H](C2=O)N(C)C(=O)CN(C)C1=O [PP1900]	24.7 nM
CCCN1C(=O)CN(C)C(=O)CN(C)C(=O)[C@H]([C@@H](C)CC)NC(=O)[C@H](CC(C)C)N(C)C(=O)C[C@@H](C(=O)N2CCOCC2)N(C)C(=O)[C@H](C2CCCC2)N(C)C(=O)C2(CCCC2)NC(=O)[C@@H]2CCCN2C(=O)[C@H](CCc2ccc(C(F)(F)F)c(Cl)c2)NC(=O)CN(C)C(=O)[C@@H]1Cc1ccc(OC(F)(F)F)cc1 [PP0137] ([NMeL]I[Sar][Sar][X51][Sar][hPhe(3-Cl-4-CF3)]P[Ac5c][NMeGly(cPent)][NMeD]-Morpholide; lactam N-11)	13.4 nM
